These results are taken from patent US6239130A, “Phosphodiesterase 4-inhibiting diazepinoindolones” (Warner-Lambert Company, priority 1997, dated 2001).

This experiment deals with PDE4 enzyme of human origin. As to the kind of experiment: PDE4-inhibiting activity on an enzyme preparation obtained from the U937 cell line. Type of experiment: biochemical. On the procedure: In the case of the PDE4 enzymes, this value is compared with that of rolipram, a specific PDE4 inhibitor. […] Measurement of the enzyme activity of the different types of PDE, and especially of the PDE4 enzymes, is then carried out according to a method adapted from W. J. Thompson, ibidem.
As usually defined, the IC50 is the concentration that gives 50% inhibition. A higher IC50 goes with weaker potency in that assay. For the molecule `COC(=O)[C@H](CCCCN)NC(=O)c1ccc2c(=O)n(C3N=C(c4ccccc4)c4cc(C)cc5c4N(CC5)C3=O)c(C)nc2c1` (stereo partly drawn) [Example 9I, Methyl (2S)-6-amino-2-{[2-methyl-3-(9-methyl-4-oxo-1-phenyl-3,4,6,7-tetrahydro-[1,4]diazepino[6,7,1-hi]indol-3-yl)-4-oxo-3,4-dihydroquinazolin-7-carbonyl]amino}hexanoate], half-maximal inhibition (IC50) was put at 119 nM.
Next, `Cc1cc2c3c(c1)C(c1ccccc1)=NC(n1c(C)nc4cc(C(=O)OCCN5CCOCC5)ccc4c1=O)C(=O)N3CC2` (stereo not shown) [Example 10, 2-(4-morpholinyl)ethyl 2-methyl-3-(9-methyl-4-oxo-1-phenyl-3,4,6,7-tetrahydro-[1,4]diazepino-[6,7,1-hi]indol-3-yl)-4-oxo-3,4-dihydroquinazoline-7-carboxylate]: 183 nM.
Next, `CC(=O)OCCOC(=O)c1ccc2c(=O)n(C3N=C(c4ccccc4)c4cc(C)cc5c4N(CC5)C3=O)c(C)nc2c1` (stereo not shown) [Example 10A, 2-acetoxyethyl 2-methyl-3-(9-methyl-4-oxo-1-phenyl-3,4,6,7-tetrahydro[1,4]diazepino[6,7,1-hi]indol-3-yl)-4-oxo-3,4dihydroquinazoline-7-carboxylate]: 108 nM; `COCCOC(=O)c1ccc2c(=O)n(C3N=C(c4ccccc4)c4cc(C)cc5c4N(CC5)C3=O)c(C)nc2c1` (stereo not shown) [Example 10B, 2-Methoxyethyl 2-methyl-3-(9-methyl-4-oxo-1-phenyl-3,4,6,7-tetrahydro[1,4]diazepino[6,7,1-hi]indol-3-yl)-4-oxo-3,4-dihydroquinazoline-7-carboxylate]: 155 nM; `Cc1cc2c3c(c1)C(c1ccccc1)=NC(n1c(C)nc4cc(C(=O)OCCO)ccc4c1=O)C(=O)N3CC2` (stereo not shown) [Example 10C, 2-Hydroxyethyl 2-methyl-3-(9-methyl-4-oxo-1-phenyl-3,4,6,7-tetrahydro[1,4]diazepino[6,7,1-hi]indol-3-yl)-4-oxo-3,4-dihydroquinazoline-7-carboxylate]: 81 nM.
Then `Cc1cc2c3c(c1)C(c1ccccc1)=NC(n1c(C)nc4cc(C(=O)OC[C@@H](O)CO)ccc4c1=O)C(=O)N3CC2` (stereo partly drawn) [Example 10D, 1-(2S)-glyceryl 2-methyl-3-(9-methyl-4-oxo-1-phenyl-3,4,6,7-tetrahydro[1,4]diazepino[6,7,1-hi]indol-3-yl)-4-oxo-3,4-dihydroquinazoline-7-carboxylate], with 42 nM; and `Cc1cc2c3c(c1)C(c1ccccc1)=NC(n1c(C)nc4cc(C(=O)OCC(O)CN5CCOCC5)ccc4c1=O)C(=O)N3CC2` (stereo not shown) [Example 10E, 2-hydroxy-3-morpholin-4-ylpropyl 2-methyl-3-(9-methyl-4-oxo-1-phenyl-3,4,6,7-tetrahydro[1,4]diazepino[6,7,1-hi]indol-3-yl)-4-oxo-3,4-dihydroquinazoline-7-carboxylate], with 75 nM; and `Cc1cc2c3c(c1)C(c1ccccc1)=NC(n1c(C)nc4cc(CO)ccc4c1=O)C(=O)N3CC2` (stereo not shown) [Example 11, 3-(7-hydroxymethyl-2-methyl-4-oxo-4H-quinazolin-3-yl)-9-methyl-1-phenyl-6,7-dihydro-3H-[1,4]diazepino[6,7,1-hi]indol-4-one], with 79 nM.
`Cc1cc2c3c(c1)C(c1ccccc1)=N[C@@H](n1c(C)nc4cccc(F)c4c1=O)C(=O)N3CC2` [Example 12] showed an IC50 of 88 nM.
Then `Cc1cc2c3c(c1)C(c1ccccc1)=NC(n1c(C)nc4cccc(Cl)c4c1=O)C(=O)N3CC2` (stereo not shown) [Example 13, 3-(5-chloro-2-methyl-4-oxo-4H-quinazolin-3-yl)-9-methyl-1-phenyl-6,7-dihydro-3H-[1,4]diazepino-[6,7,1-hi]indol-4-one], with 83 nM.
Then `CCOC(=O)c1nc2ccccc2c(=O)n1C1N=C(c2ccccc2)c2cc(C)cc3c2N(CC3)C1=O` (stereo not shown) [Example 14, ethyl 3-(9-methyl-4-oxo-1-phenyl-3,4,6,7-tetrahydro-[1,4]diazepino[6,7,1-hi]indol-3-yl)-4-oxo-3,4-dihydroquinazoline-2-carboxylate], with 310 nM; and `CCOC(=O)c1nc2cccc(Cl)c2c(=O)n1C1N=C(c2ccccc2)c2cc(C)cc3c2N(CC3)C1=O` (stereo not shown) [Example 15, Ethyl 5-chloro-3-(9-methyl-4-oxo-1-phenyl-3,4,6,7-tetrahydro-[1,4]diazepino[6,7,1-hi]indol-3-yl)-4oxo-3,4-dihydroquinazoline-2-carboxylate], with 82 nM.
Next, `CCOC(=O)Cc1nc2ccccc2c(=O)n1C1N=C(c2ccccc2)c2cc(C)cc3c2N(CC3)C1=O` (stereo not shown) [Example 16, Ethyl [3-(9-methyl-4-oxo-1-phenyl-3,4,6,7-tetrahydro-[1,4]diazepino[6,7,1-hi]indol-3-yl)-4-oxo-3,4-dihydro-2-quinazolinyl]acetate]: 260 nM; `COCc1nc2ccccc2c(=O)n1C1N=C(c2ccccc2)c2cc(C)cc3c2N(CC3)C1=O` (stereo not shown) [Example 17A, 9-Methyl-3-(2-methyloxymethyl-4-oxo-4H-quinazolin-3-yl)-1-phenyl-6,7-dihydro-3H-[1,4]diazepino[6,7,1-hi]indol-4-one]: 137 nM.
As to `Cc1cc2c3c(c1)C(c1ccccc1)=NC(n1c(CO)nc4ccccc4c1=O)C(=O)N3CC2` (stereo not shown) [Example 17B, 9-Methyl-3-(2-hydroxymethyl-4-oxo-4H-quinazolin-3-yl)-1-phenyl-6,7-dihydro-3H-[1,4]diazepino[6,7,1-hi]indol-4-one], the IC50 is 221 nM.
In turn, `Cc1cc2c3c(c1)C(c1ccccc1)=NC(n1c(COC(=O)CCC(=O)O)nc4ccccc4c1=O)C(=O)N3CC2` (stereo not shown) [Example 17C, [3-(9-Methyl-4-oxo-1-phenyl-3,4,6,7-tetrahydro-[1,4]diazepino[6,7,1-hi]indol-3-yl)-4-oxo-3,4-dihydroquinazolin-2-yl]methyl hydrogen succinate] yielded an IC50 of 339 nM.
Next, `COCCOCCOCC(=O)OCc1nc2ccccc2c(=O)n1C1N=C(c2ccccc2)c2cc(C)cc3c2N(CC3)C1=O` (stereo not shown) [Example 17D, [3-(9-Methyl-4-oxo-1-phenyl-3,4,6,7-tetrahydro-[1,4]diazepino[6,7,1-hi]iondol-3-yl)-4-oxo-3,4-dihydroquinazolin-2-yl]methanol [2-(2-methoxyethoxy)ethoxy]acetate]: 286 nM; `Cc1cc2c3c(c1)C(c1ccccc1)=NC(n1c(COC(=O)CCC(=O)NCCN4CCOCC4)nc4ccccc4c1=O)C(=O)N3CC2` (stereo not shown) [Example 17E, 3-(9-Methyl-4-oxo-1-phenyl-3,4,6,7-tetrahydro-[1,4]diazepino [6,7,1-hi]indol-3-yl)-4-oxo-3,4-dihydroquinazolin-2-ylmethyl N-(2-morpholin-4-ylethyl)succinamate]: 222 nM.
`Cc1cc2c3c(c1)C(c1ccccc1)=NC(n1c(COC(=O)CCC(=O)OCCN4CCOCC4)nc4ccccc4c1=O)C(=O)N3CC2` (stereo not shown) [Example 17F, 3-(9-Methyl-4-oxo-1-phenyl-3,4,6,7-tetrahydro-[1,4]diazepino[6,7,1-hi]indol-3-yl)-4-oxo-3,4-dihydroquinazolin-2-ylmethyl 2-morpholin-4-ylethyl succinnate] registered an IC50 of 147 nM.
